Experiment in all cases: inhibition of tumour cell growth, NCI panel, 48 h
In assay [1] the test system is MCF7 breast.
The test system of assay [2] is OVCAR-8 ovarian.
The test system of assay [3] is RPMI-8226 leukemia.
Assay [4] has as its system SK-MEL-28 melanoma.
The test system of assay [5] is DLD-1 colon.
Assay [6] relates to DMS 114 small cell lung.
The subject of assay [7] is HOP-18 NSCLC.
For assay [8], the system named is KM20L2 colon.
Assay [9] concerns LXFL 529 NSCLC.
Assay [10] relates to M19-MEL melanoma.
Assay [11] concerns SNB-78 CNS.
In assay [12] the test system is XF 498 CNS.
The subject of assay [13] is DMS 273 small cell lung.
Assay [14] deals with RXF-631 renal.
In assay [15] the test system is SN12K1 renal.

Several values for one entry are separate records, joined by “and”; a condition that tells them apart may be missing. Equal values may be shown once.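 48-hour exposure; five concentrations; linearly interpolated endpoints. GI50 marks 50% less growth. TGI: total growth inhibition.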 Where a SMILES comes first, the peptide text is derived from it. The star is where a group is joined. Boc = CC(C)(C)OC(=O)*; nBu = CCCC*

With `C[C@@H]1CC[C@@H]2[C@@H](C1)O[C@@H]([C@@H](C)OCc1ccccc1)SC2(C)C`, the TGI is 35.3 µM in assay [1], 58.8 µM in [2], 35.4 µM in [3] and 60.4 µM in assay [4].
Take `C#C[C@]1(O)CC[C@H]2[C@@H]3CCc4cc(O)ccc4[C@H]3CC[C@@]21C`: the TGI in [5] is 60.7 µM; in assay [6] it was > 100 µM; in assay [7], > 100 µM; in assay [8], 38.9 µM; in assay [9], > 100 µM; in [10] it was 57.2 µM. Moreover, the TGI in assay [2] was > 100 µM; in assay [4], > 100 µM; in assay [11], > 100 µM; in assay [12] it was 98 µM.
Take `CC(C)CC(N)C(=O)NC(C(=O)NC(CCCNC(=N)N)C(=O)NC(CS)C(=O)NC1CSCC(C(=O)NC(Cc2ccccc2)C(=O)NC(C(=O)NC(CCCNC(=N)N)C(=O)O)C(C)C)NC(=O)C2CCCN2C(=O)C(CCCCN)NC(=O)C2CCCN2C(=O)C2CCCN2C(=O)C(Cc2ccc(O)cc2)NC(=O)C(CO)NC(=O)C(CCCCN)NC(=O)C(C(C)O)NC(=O)C(Cc2c[nH]c3ccccc23)NC1=O)C(C)C` (stereo unspecified): the TGI in assay [1], in assay [2], in assay [3] and in assay [4] was > 25 µM in each case.
As to `CC(Oc1ccc(Cl)cc1Cl)C(=O)NN1C(=O)CC(=O)N(c2ccccc2)C1=S` (stereo unspecified), the TGI in assay [1], in assay [2], in [3] and in assay [4] was > 100 µM throughout.
On to `COc1ccc(CCn2cncn2)cc1`, for which the TGI in [5], in assay [6], in [13], in [8], in [9] and in assay [10] was > 100 µM throughout. Further, the TGI in assay [14], in assay [4] and in assay [11] was > 100 µM throughout.
Regarding `COc1ccccc1-c1c(C#N)c(N)[nH]c(=S)c1C#N`, the TGI in assay [1], in assay [2], in [3] and in [4] was > 100 µM throughout.
Take `COC(=O)/C=C\C(C#N)(C#N)N=Cc1ccc(OC)cc1`: the TGI stood at 7.44 µM in assay [1], 9.46 µM in [2], 2.87 µM in [3] and 12.8 µM in assay [4].
The like results for `Nc1nc(SCC(=O)c2ccc(Br)cc2)c2[nH]cnc2n1` were, in that order, > 100 µM, > 100 µM, > 100 µM and > 100 µM.
The corresponding values for `COc1ccc2nc3cc(Cl)ccc3c(NCCCN3CCN(CCCNc4ccc5nnn6c7ccccc7c(=O)c4c56)CC3)c2c1` are 7.11 µM, > 25 µM, > 25 µM and > 25 µM.
For the molecule `CCOc1nc2c(N3CCCC3)nc(N3CCNCC3)nc2nc1NCc1ccccc1`, the TGI in assay [1] was determined as 2.86 µM; in assay [2] it was 4.1 µM; in [3] it was 3.37 µM; in assay [4], 3.37 µM.
For `CCCCOc1ccc(CC(NC(=O)OC(C)(C)C)C(=O)NC(C)C(=O)NC(Cc2ccccc2)C(=O)NCC(N)=O)cc1` (stereo unspecified) (Boc-Y(nBu)AFG-NH2; configuration not given here), the TGI in assay [1], in [2], in [3] and in assay [4] was > 100 µM throughout.
As for `O=c1c2cc(O)ccc2n2nnc3ccc(NCCNCCO)c1c32`, the GI50 in assay [5] was 23.9 µM and 6.6 µM; in assay [8], 27.1 µM and 13.4 µM; in assay [10] it was 6.8 µM and 2.68 µM; in assay [4] it was 9.78 µM and 4.3 µM; in assay [11], 4.78 µM and 2.11 µM. Further, the TGI in [5] was > 100 µM and 40.7 µM; in assay [6], 14.8 µM and 9.51 µM; in [13], > 59.3 µM; in assay [7], > 100 µM and 69.1 µM; in [8] it was > 100 µM and 44.9 µM; in assay [9], 18.1 µM and 13 µM. Moreover, the TGI in [10] was 20.7 µM and 12.1 µM; in [2] it was 42 µM and 17.7 µM; in [3], 65 µM and 31.7 µM; in assay [4] it was 22.7 µM and 16.2 µM; in [11], > 55.9 µM and 14.4 µM; in assay [12], 12.4 µM.
On to `C/C(C=O)=C/[C@@]1(C)O[C@@H](C)[C@@](C)(O)[C@@H]1O`, for which the TGI is > 100 µM in assay [1], 40 µM in assay [2], > 100 µM in assay [3] and > 100 µM in assay [4].
In the case of `COc1ccc2nc3ccc(OC)cc3c(SCCCl)c2c1`, the TGI in assay [1] was > 47 µM; in assay [2], > 35.2 µM; in [3] it was 10.6 µM; in [4], > 100 µM.
The corresponding values for `CCc1n[nH]c(=O)n1/N=C(\C)c1ccccc1` are > 100 µM, > 100 µM, > 100 µM and > 100 µM.
As for `COc1cc(C2S/C(=C/c3ccccc3)C(=O)N2c2cccc(NC(C)=O)c2)cc(OC)c1OC` (stereo unspecified), the TGI in assay [1], in assay [2] and in [4] was > 100 µM in each case.
Take `CC(Oc1ccccc1Cl)C(=O)NN1C(=O)CC(=O)N(c2ccc(Cl)cc2)C1=S` (stereo unspecified): the TGI in assay [1], in assay [2], in assay [3] and in assay [4] was > 100 µM each time.
On to `CC1=NN(c2nc(N)nc(/C(C#N)=C\c3ccc(-c4ccc([N+](=O)[O-])cc4)o3)n2)C(C)(C)C1`, for which the TGI in assay [1], in [2], in assay [3] and in assay [4] was > 100 µM each time.
With `O=[N+]([O-])c1ccc(N=Nc2c(O)[nH]c3ccccc23)c([N+](=O)[O-])c1`, the TGI was 80.7 µM in [1], 27.8 µM in assay [2], > 100 µM in assay [3] and > 100 µM in assay [4].
Regarding `O=C1c2c(Br)sc(Br)c2[C@@H](O)[C@H]1O`, the TGI is 33 µM in [1], > 44.4 µM in assay [2], 47.6 µM in [3] and 41 µM in assay [4].
The corresponding values for `CC1(C)OC[C@@H]([C@@]2(COC(c3ccccc3)(c3ccccc3)c3ccccc3)CC=CC(=O)O2)O1` are 54.6 µM, > 100 µM, 64.7 µM and > 100 µM.
For `O=C(Nc1ccccc1)Oc1ccc(C(=S)Nc2ccc(Br)cc2)cc1`, the TGI in [1] was 60.9 µM; in [2], 29.2 µM; in assay [3] it was > 100 µM; in [4] it was 46.4 µM.
Turning to `CC(=O)c1ccc(Nc2c3ccccc3nc3occc23)cc1`, the TGI in assay [1] is < 0.128 µM; in assay [2] it was 7.01 µM; in assay [3], 4.28 µM; in assay [4] it was 50 µM.
The like results for `N#C/C(=C(/O)CCl)c1nc2ccccc2o1` were, in that order, 8.59 µM, 14.9 µM, 7.87 µM and 3.5 µM.
Turning to `Oc1ccccc1C=Nc1ccc(-c2nc3ccccc3s2)cc1`, the TGI in assay [2], in assay [3] and in assay [4] was > 100 µM in each case.
Take `O=P(NCCCO)(OCc1ccccc1)N(CCCl)CCCl` (stereo unspecified): the TGI in assay [5] was > 31.6 µM; in assay [13], > 100 µM; in assay [7], > 100 µM; in assay [8], > 100 µM; in [10], > 100 µM; in assay [1], > 100 µM. In addition, the TGI in [2], in [4], in assay [15], in assay [11] and in assay [12] was > 100 µM throughout.
Take `CN(CCc1ccccn1)c1ccc2c(c1)C(=O)c1ccccc1-2`: the TGI in assay [1], in assay [2], in assay [3] and in [4] was > 100 µM each time.
For `COc1ccc(N2C(=O)C(=O)C3(CCCCC3)C2=O)c2ccccc12`, the TGI in [1], in assay [2], in assay [3] and in assay [4] was > 10 µM in each case.
Take `COC(=O)c1c(O)ccc2c1c1cc3ccccc3c(O)c1n2CCc1ccc(OC)c(OC)c1`: the TGI in assay [1] is > 100 µM; in [2], > 100 µM; in [3], > 100 µM; in assay [4], 91.1 µM.
Take `COC(=O)c1c(O)ccc2c1c1c(n2Cc2cc(OC)cc(OC)c2)C(=O)c2ccccc2C1=O`: the TGI stood at 45.3 µM in assay [1], 90.3 µM in assay [2], 9.98 µM in assay [3] and 33 µM in assay [4].
In the case of `CN1CCC(C(O)(c2ccccc2)c2ccc(Br)cc2)CC1` (stereo unspecified), the TGI in [1] was 64.2 µM; in assay [2], > 100 µM; in assay [3], 45.8 µM; in [4], 35.1 µM.
Consider `COc1ccc(C2C3CCc4ccccc4C3=NN2S(=O)(=O)c2cccc(C(=O)O)c2OC)cc1` (stereo unspecified), for which the TGI in assay [1] is 6.55 µM; in assay [2], > 100 µM; in assay [3], 54.7 µM.
